We go through 25 molecules from ChEMBL document CHEMBL1150313, “Novel bis-(arylsulfonamide) hydroxamate-based selective MMP inhibitors” (Bioorg Med Chem Lett, 2008).

The target in assay [1] is T1, Matrix metalloproteinase-9 (Homo sapiens, UniProt P14780). As to the kind of experiment: Inhibition of human recombinant MMP9.
In another assay the target is T2, Matrilysin (Homo sapiens, UniProt P09237).
T2 sequence (P09237 whole entry): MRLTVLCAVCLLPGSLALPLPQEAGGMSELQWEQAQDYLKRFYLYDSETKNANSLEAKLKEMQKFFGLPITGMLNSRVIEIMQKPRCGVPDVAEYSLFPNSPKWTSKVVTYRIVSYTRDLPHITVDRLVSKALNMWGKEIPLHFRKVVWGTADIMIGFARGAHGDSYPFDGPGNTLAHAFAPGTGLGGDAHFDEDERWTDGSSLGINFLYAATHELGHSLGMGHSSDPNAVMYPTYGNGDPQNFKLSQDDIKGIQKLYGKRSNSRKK
As to the kind of experiment: (§1) Inhibition of human recombinant MMP7.

Assay [2] has as its target T3, Stromelysin-2 (Homo sapiens, UniProt P09238). Nature of the assay: Inhibition of human recombinant MMP10.
Assay [3] concerns the target T3, Stromelysin-2. As to the kind of experiment: Inhibition of human recombinant MMP10 at 10 uM.
Target sequence in this assay (P09238 99-476 limits assumed): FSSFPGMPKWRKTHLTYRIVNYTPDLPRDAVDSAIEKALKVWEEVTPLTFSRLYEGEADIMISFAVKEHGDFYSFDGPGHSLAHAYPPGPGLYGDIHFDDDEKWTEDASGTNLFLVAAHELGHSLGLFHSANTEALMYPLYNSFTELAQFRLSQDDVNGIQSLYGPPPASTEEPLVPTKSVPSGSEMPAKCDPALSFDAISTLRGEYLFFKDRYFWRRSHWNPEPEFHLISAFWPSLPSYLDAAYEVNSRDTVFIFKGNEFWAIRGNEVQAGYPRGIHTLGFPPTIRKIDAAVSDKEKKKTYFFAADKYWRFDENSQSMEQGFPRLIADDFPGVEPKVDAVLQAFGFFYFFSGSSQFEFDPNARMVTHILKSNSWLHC
In assay [4] the target is T4, Matrilysin (Homo sapiens) (UniProt P09237).
T4 sequence (whole entry): T2 sequence (P09237 whole entry)
As to the kind of experiment: Inhibition of human recombinant MMP7 at 10 uM.

Assay [5] deals with T1, Matrix metalloproteinase-9. As to the kind of experiment: Inhibition of human recombinant MMP9 at 10 uM.
Assay [6] concerns the target T4, Matrilysin (Homo sapiens). The description is as §1.

Active and inactive are the calls of the source. The calls are words filed in the database; no cut-off is given here.

T1 sequence (P14780 whole entry): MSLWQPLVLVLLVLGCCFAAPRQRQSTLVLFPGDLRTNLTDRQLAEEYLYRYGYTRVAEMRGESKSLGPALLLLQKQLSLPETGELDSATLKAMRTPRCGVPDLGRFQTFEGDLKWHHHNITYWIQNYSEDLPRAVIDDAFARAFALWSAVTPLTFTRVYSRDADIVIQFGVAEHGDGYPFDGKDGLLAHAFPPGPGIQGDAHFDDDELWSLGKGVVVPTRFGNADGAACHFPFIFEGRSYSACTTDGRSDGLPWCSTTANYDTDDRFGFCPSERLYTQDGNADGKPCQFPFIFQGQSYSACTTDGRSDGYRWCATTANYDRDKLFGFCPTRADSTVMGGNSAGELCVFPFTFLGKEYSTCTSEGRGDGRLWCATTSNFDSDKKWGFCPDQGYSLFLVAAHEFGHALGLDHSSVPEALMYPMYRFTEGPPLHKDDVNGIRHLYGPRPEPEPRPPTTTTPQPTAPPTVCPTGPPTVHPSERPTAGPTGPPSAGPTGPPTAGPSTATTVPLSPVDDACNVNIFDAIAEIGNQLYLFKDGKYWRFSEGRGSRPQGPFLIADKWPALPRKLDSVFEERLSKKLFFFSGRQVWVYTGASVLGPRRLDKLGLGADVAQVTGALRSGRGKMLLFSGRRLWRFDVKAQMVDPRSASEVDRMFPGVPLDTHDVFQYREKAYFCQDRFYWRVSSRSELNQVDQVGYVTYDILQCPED

Consider `O=C(NO)C(CNS(=O)(=O)c1ccccc1C(F)(F)F)NS(=O)(=O)c1ccccc1C(F)(F)F` (configuration not stated), for which the outcome (in assay [1]; on Stromelysin-2 [2]) was inactive. Moreover, on Matrilysin, the Ki (commonly the dissociation constant of the complex between target and ligand, obtained from inhibition or displacement) stood at 6 µM.

`O=C(NO)[C@H](CCCCNS(=O)(=O)c1ccc(F)cc1)NS(=O)(=O)c1ccc(F)cc1`: the result in assay [1] was inactive. Further, on Stromelysin-2 [3], the inhibition – broadly, the drop in the measured response relative to a control, in per cent – is 27.4%. Moreover, the inhibition constant Ki on Matrilysin is 3.1 µM.

`O=C(NO)C(CNS(=O)(=O)c1cccc(C(F)(F)F)c1)NS(=O)(=O)c1cccc(C(F)(F)F)c1` (configuration not stated): the outcome (in assay [1]; on Stromelysin-2 [2]) was inactive. Also, on Matrilysin, the inhibitory constant (Ki) was 0.602 µM.

In the case of `COc1ccc(S(=O)(=O)NCC(NS(=O)(=O)c2ccc(OC)cc2OC)C(=O)NO)c(OC)c1` (configuration not stated), the Ki in assay [1] is 124 µM; at Matrilysin, 0.289 µM; on Stromelysin-2 [2], 372 µM.

Turning to `O=C(NO)[C@H](CCCNS(=O)(=O)c1ccc(C(F)(F)F)cc1)NS(=O)(=O)c1ccc(C(F)(F)F)cc1`, the values for the Ki (in assay [1]; at Matrilysin; at Stromelysin-2 [2]) were 329 µM, 7 µM and 337 µM, respectively.

With `O=C(NO)[C@H](CCCCNS(=O)(=O)c1ccc(Br)cc1)NS(=O)(=O)c1ccc(Br)cc1`, the outcome in assay [1] was inactive. Moreover, the inhibition at Stromelysin-2 [3] amounted to 34.5%. For the same molecule, the Ki at Matrilysin stood at 2.2 µM.

As to `O=C(NO)[C@H](CCCCNS(=O)(=O)c1ccc(C(F)(F)F)cc1)NS(=O)(=O)c1ccc(C(F)(F)F)cc1`, in assay [1], the outcome was inactive. In addition, the inhibition at Stromelysin-2 [3] came out at 1.8%; in assay [4] it was 24%.

In the case of `O=C(NO)[C@H](CCCNS(=O)(=O)c1ccccc1)NS(=O)(=O)c1ccccc1`, the result (in assay [1]; at Stromelysin-2 [2]) was inactive. Further, the Ki at Matrilysin turned out to be 3 µM.

Take `CN(C)c1cccc2c(S(=O)(=O)NCC(NS(=O)(=O)c3cccc4c(N(C)C)cccc34)C(=O)NO)cccc12` (configuration not stated): the Ki came to 150 µM in assay [1] and 4.8 µM on Matrilysin.

Regarding `O=C(NO)[C@H](CCCNS(=O)(=O)c1ccc(I)cc1)NS(=O)(=O)c1ccc(I)cc1`, the figures for the inhibition constant (Ki) (in assay [1]; at Matrilysin) were 221 µM and 5 µM, respectively. For the same molecule, the outcome on Stromelysin-2 [2] was inactive.

For `O=C(NO)C(CNS(=O)(=O)c1ccc(F)cc1)NS(=O)(=O)c1ccc(F)cc1` (configuration not stated), the inhibitory constant (Ki) came out at 2.75 µM in assay [1], 0.625 µM at Matrilysin and 4.57 µM at Stromelysin-2 [2].

`O=C(NO)C(CNS(=O)(=O)c1ccc(Br)cc1)NS(=O)(=O)c1ccc(Br)cc1` (configuration not stated): the Ki in assay [1] was determined as 0.15 µM; on Matrilysin, 5.5 µM.

Consider `O=C(NO)C(CNS(=O)(=O)c1ccc(Cl)cc1)NS(=O)(=O)c1ccc(Cl)cc1` (configuration not stated), for which the inhibitory constant (Ki) in assay [1] worked out at 0.23 µM; on Matrilysin, 0.237 µM.

Consider `O=C(NO)C(CNS(=O)(=O)c1ccc([N+](=O)[O-])cc1)NS(=O)(=O)c1ccc([N+](=O)[O-])cc1` (configuration not stated), for which the Ki is 1.7 µM in assay [1], 6.6 µM at Matrilysin and 22 µM at Stromelysin-2 [2].

Consider `O=C(NO)C(CNS(=O)(=O)c1ccc(I)cc1)NS(=O)(=O)c1ccc(I)cc1` (configuration not stated), for which the inhibition constant Ki in assay [1] amounted to 0.0026 µM; on Matrilysin, 1.8 µM; at Stromelysin-2 [2] it was 1.6 µM.

For `O=C(NO)[C@H](CCCCNS(=O)(=O)c1ccc(I)cc1)NS(=O)(=O)c1ccc(I)cc1`, in assay [1], the outcome was inactive. For the same molecule, the inhibition at Stromelysin-2 [3] worked out at 30.9%; in assay [4] it was 46%.

For `O=C(NO)C(CNS(=O)(=O)c1c(F)c(F)c(F)c(F)c1F)NS(=O)(=O)c1c(F)c(F)c(F)c(F)c1F` (configuration not stated), the results for the Ki (in assay [1]; at Matrilysin) were 212 µM and 8.6 µM, respectively. Also, the result at Stromelysin-2 [2] was inactive.

For `O=C(NO)[C@H](CCCCNS(=O)(=O)c1ccccc1)NS(=O)(=O)c1ccccc1`, the inhibition at Stromelysin-2 [3] stood at 34.5%; in assay [5] it was 7.5%; in assay [4], 44%.

On to `O=C(NO)[C@H](CCCNS(=O)(=O)c1ccc(Br)cc1)NS(=O)(=O)c1ccc(Br)cc1`, for which the inhibition on Stromelysin-2 [3] stood at 16.4%; in assay [5] it was 9.3%; in assay [4] it was 32%.

In the case of `COc1ccc(S(=O)(=O)NCCC[C@H](NS(=O)(=O)c2ccc(OC)cc2)C(=O)NO)cc1`, the Ki in assay [1] turned out to be 4.2 µM. In addition, the result in assay [6] was inactive. Also, the Activity at Stromelysin-2 [2] was found to be 16 µM.

As for `O=C(NO)[C@H](CCCNS(=O)(=O)c1ccc(Cl)cc1)NS(=O)(=O)c1ccc(Cl)cc1`, the outcome in assay [1] was inactive. Besides, the inhibition on Stromelysin-2 [3] stood at 34.5%; in assay [4], 31%.

As to `O=C(NO)[C@H](CCCNS(=O)(=O)c1ccc(F)cc1)NS(=O)(=O)c1ccc(F)cc1`, in assay [1], the result was inactive. The inhibition at Stromelysin-2 [3] was 20%; in assay [4], 17%.

As to `COc1ccc(S(=O)(=O)NCC(NS(=O)(=O)c2ccc(OC)cc2)C(=O)NO)cc1` (configuration not stated), the Ki in assay [1] was found to be 0.039 µM; at Matrilysin, 0.605 µM; at Stromelysin-2 [2], 0.335 µM.

Take `O=C(NO)C(CNS(=O)(=O)c1ccccc1)NS(=O)(=O)c1ccccc1` (configuration not stated): the Ki in assay [1] is 0.227 µM; at Matrilysin, 2.8 µM; on Stromelysin-2 [2] it was 0.356 µM.

Consider `O=C(NO)C(CNS(=O)(=O)c1ccc(C(F)(F)F)cc1)NS(=O)(=O)c1ccc(C(F)(F)F)cc1` (configuration not stated), for which the Ki in assay [1] was 7.9 µM; at Matrilysin, 10 µM; on Stromelysin-2 [2], 23 µM.
